Source: ChEMBL document CHEMBL2331539, “A comparative protease stability study of synthetic macrocyclic peptides that mimic two endocrine hormones” (Bioorg Med Chem Lett, 2013)
Square brackets hold non-standard residues; d marks the D form. Peptide text beside a SMILES is read from it. Dap = NC[C@H](N)C(=O)O

Key:
[1] = Stability of the compound in presence of pronase (unknown origin) assessed as degradation measured after 360 mins by HPLC analysis; format: ADME; conditions: read-out: Drug degradation
[2] = Stability of the compound in presence of alpha-chymotrypsin (unknown origin) assessed as degradation measured after 120 mins by HPLC analysis; format: ADME, Homo sapiens; conditions: read-out: Drug degradation
[3] = Stability of the compound in presence of alpha-chymotrypsin (unknown origin) assessed as degradation measured after 360 mins by HPLC analysis; format: ADME, Homo sapiens; conditions: read-out: Drug degradation
[4] = Stability of the compound in presence of pepsin (unknown origin) assessed as degradation measured after 360 mins by HPLC analysis; format: ADME, Homo sapiens; conditions: read-out: Drug degradation
[5] = Stability of the compound in presence of pronase (unknown origin) assessed as degradation measured after 60 mins by HPLC analysis; format: ADME; conditions: read-out: Drug degradation
[6] = Stability of the compound in presence of pepsin (unknown origin) assessed as degradation measured after 60 mins by HPLC analysis; format: ADME, Homo sapiens; conditions: read-out: Drug degradation
Vasopressin V2 receptor = Vasopressin V2 receptor (Homo sapiens, UniProt P30518); assay: Binding affinity to vasopression V2 receptor (unknown origin) on isolated cell membrane by vasopression competition binding assay
Sequence of Vasopressin V2 receptor (P30518 whole entry): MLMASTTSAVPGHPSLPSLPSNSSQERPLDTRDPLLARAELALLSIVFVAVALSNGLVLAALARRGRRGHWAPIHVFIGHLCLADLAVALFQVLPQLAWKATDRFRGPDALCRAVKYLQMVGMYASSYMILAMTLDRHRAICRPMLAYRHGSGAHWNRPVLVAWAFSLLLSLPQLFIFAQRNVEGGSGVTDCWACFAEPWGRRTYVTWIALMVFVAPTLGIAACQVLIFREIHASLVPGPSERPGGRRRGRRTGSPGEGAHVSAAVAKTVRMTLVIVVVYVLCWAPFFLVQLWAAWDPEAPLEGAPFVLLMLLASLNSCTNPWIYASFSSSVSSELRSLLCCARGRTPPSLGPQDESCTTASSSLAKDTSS

[7] = Stability of the compound in presence of pepsin (unknown origin) assessed as degradation measured after 120 mins by HPLC analysis; format: ADME, Homo sapiens; conditions: read-out: Drug degradation
[8] = Stability of the compound in presence of pronase (unknown origin) assessed as degradation measured after 120 mins by HPLC analysis; format: ADME; conditions: read-out: Drug degradation
[9] = Stability of the compound in presence of alpha-chymotrypsin (unknown origin) assessed as degradation measured after 60 mins by HPLC analysis; format: ADME, Homo sapiens; conditions: read-out: Drug degradation

Structure (SMILES) | metabolised at 6 h [1] [%] | metabolised at 2 h [2] [%] | metabolised at 6 h [3] [%] | metabolised at 6 h [4] [%] | metabolised at 1 h [5] [%] | metabolised at 1 h [6] [%] | IC50 (Vasopressin V2 receptor) [µM] | metabolised at 2 h [7] [%] | metabolised at 2 h [8] [%] | metabolised at 1 h [9] [%]
NC(=O)CC[C@@H]1NC(=O)[C@H](Cc2ccccc2)NC(=O)[C@H](Cc2ccc(O)cc2)NC(=O)[C@H](Cc2ccc(O)cc2)NC(=O)CNC(=O)[C@H](CC(N)=O)NC1=O (cyclo(FQNGYY)) | 64.2 | 1.49 | 24.7 | 5.23 | 27.9 | 5.39 | 2 | 10.2 | 50.2 | -0.98
NC[C@@H]1NC(=O)CNC(=O)[C@H](CC(N)=O)NC(=O)[C@H](CCC(N)=O)NC(=O)[C@H](Cc2ccccc2)NC(=O)[C@H](Cc2ccc(O)cc2)NC1=O (cyclo([Dap]YFQNG)) | 0.882 | 7.08 | 20.3 | 2.08 | -2.07 | 0.716 | 10.2 | 3.52 | 0.323 | 6.62
NC(=O)CC[C@@H]1NC(=O)[C@H](Cc2ccccc2)NC(=O)[C@H](Cc2ccc(O)cc2)NC(=O)[C@@H](N)CSSC[C@@H](C(=O)N2CCC[C@H]2C(=O)N[C@@H](CCCN=C(N)N)C(=O)NCC(N)=O)NC(=O)[C@H](CC(N)=O)NC1=O [VASOPRESSIN] | 48.2 | 32.1 | 46.1 | 80.1 | 4.4 | 79.8 | – | 78.6 | 15.9 | 18.7

Continued, values first:

metabolised at 6 h [1] [%] | metabolised at 2 h [2] [%] | metabolised at 6 h [3] [%] | metabolised at 6 h [4] [%] | metabolised at 1 h [5] [%] | metabolised at 1 h [6] [%] | IC50 (Vasopressin V2 receptor) [µM] | metabolised at 2 h [7] [%] | metabolised at 2 h [8] [%] | metabolised at 1 h [9] [%] | Structure (SMILES)
6.2 | 0 | 0.0955 | 4.66 | 11.5 | 2.34 | – | -0.41 | 2.99 | 0.136 | CC[C@H](C)[C@@H]1NC(=O)[C@H](Cc2ccc(O)cc2)NC(=O)[C@H](CN)NC(=O)CNC(=O)[C@H](CC(N)=O)NC(=O)[C@H](CCC(N)=O)NC1=O (cyclo([Dap]YIQNG))
100 | 43.2 | 74.6 | – | 69.6 | – | – | – | 96.8 | 25.1 | CC[C@H](C)[C@@H]1NC(=O)[C@H](Cc2ccc(O)cc2)NC(=O)[C@@H](N)CSSC[C@@H](C(=O)N2CCC[C@H]2C(=O)N[C@@H](CC(C)C)C(=O)NCC(N)=O)NC(=O)[C@H](CC(N)=O)NC(=O)[C@H](CCC(N)=O)NC1=O [OXYTOCIN]
